Laboratory results as given in patent US20250011281A1, “THERAPEUTIC ALKALOID COMPOUNDS” (Sensorium Therapeutics, Inc., priority 2023, published 2025).
Where two headings read alike, the source gives them in different places.

What was measured:
SERT = target: T1, SERT (Homo sapiens, UniProt P31645); experiment: SERT Inhibition Assay (Neurotransmitter Transportation Fluorescence assay); assay type: cell-based; settings: for IC50 Ratio to (−) Mesembrine: SERT assay, ratio to compound 0001
T1 construct: expressed in transfected cells
Procedure: Example A: SERT Inhibition Assay
SERT inhibition was measured using a Neurotransmitter Transportation Fluorescence assay. Briefly, stable 5HHH cells were prepared in a 384 microwell plate. Compounds were prepared by in assay buffer (20 mM HEPES, 0.1% BSA). The compounds were added to the plated cells and incubated for 30 minutes at 37° C. 25 μL of dye solution (Molecular Devices Neurotransmitter Transporter Uptake Assay Kit) was added per well and incubated for 30 minutes at 37° C. The plates were then read on a plate reader.

5-HT transporter (SERT) = 5-HT transporter (SERT) (Homo sapiens, UniProt P31645); settings: concentration response curves; cited from earlier work
5-HTT = 5-HTT (Homo sapiens, UniProt P31645); experiment: Potency at 5-HTT compared to mesembrine
[1] = Metabolic stability compared to mesembrine; assay type: in vitro ADME
[2] = stable 5HHH cells, 30 minutes at 37° C., read-out: SERT Assay Potency Range

T1 sequence (P31645 whole entry, species assumed): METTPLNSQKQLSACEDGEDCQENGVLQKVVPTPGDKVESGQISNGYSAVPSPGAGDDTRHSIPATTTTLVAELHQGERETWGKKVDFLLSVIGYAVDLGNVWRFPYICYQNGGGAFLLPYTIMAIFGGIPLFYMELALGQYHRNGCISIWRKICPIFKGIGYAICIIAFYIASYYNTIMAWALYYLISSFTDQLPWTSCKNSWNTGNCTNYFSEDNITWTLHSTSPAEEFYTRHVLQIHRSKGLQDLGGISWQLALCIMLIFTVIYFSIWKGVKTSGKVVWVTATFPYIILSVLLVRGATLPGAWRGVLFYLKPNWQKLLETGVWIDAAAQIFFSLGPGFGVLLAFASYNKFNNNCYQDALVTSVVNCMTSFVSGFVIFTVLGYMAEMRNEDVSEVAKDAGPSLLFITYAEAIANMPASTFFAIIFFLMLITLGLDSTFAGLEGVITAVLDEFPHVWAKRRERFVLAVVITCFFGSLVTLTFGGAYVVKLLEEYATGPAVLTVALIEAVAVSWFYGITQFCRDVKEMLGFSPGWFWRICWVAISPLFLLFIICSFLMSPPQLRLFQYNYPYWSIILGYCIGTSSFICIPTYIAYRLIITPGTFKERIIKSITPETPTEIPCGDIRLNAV
Sequence of 5-HTT (P31645 whole entry, species assumed): as above
Sequence of 5-HT transporter (SERT) (P31645 whole entry, species assumed): as above

Structure (SMILES) | IC50 Ratio to (−) Mesembrine (SERT) | IC50 (SERT; [2]) [nM] | further results
COc1ccc([C@@]23C=C[C@@H](O)C[C@@H]2N(C)CC3)cc1OC [Compound 0020] | ≥100 | 100 to 500 | 
CCOc1ccc([C@@]23CC[C@H](O)C[C@@H]2N(C)CC3)cc1OCC [Compound 1764] | ≤0.5 | < 50 | 
COc1ccc([C@@]23C=C[C@@H](O)C[C@@H]2N(C)CC3)cc1OC [Mesembrenol, mesembrenol] |  |  | nH (5-HT transporter (SERT)): 1.1
COc1cc([C@@]23CC[C@@H](O)C[C@@H]2N(C)CC3)ccc1OC(F)F [Compound 2723] | ≤0.5 |  | IC50 (SERT): < 50 nM
CCN1CC[C@]2(c3ccc(OC)c(OC)c3)CC[C@H](O)C[C@H]12 [Compound 1002] | ≥100 | 500 to 1000 | 
COc1cc([C@@]23CC[C@H](O)C[C@@H]2N(C)CC3)ccc1OC(F)F [Compound 2724] | ≤0.5 | < 50 | 
COc1ccc([C@@]23CC[C@H](O)C[C@@H]2N(C)CC3)cc1OC [Compound 0019, (3aS,6S,7aS)-3a-(3,4-dimethoxyphenyl)-1-methyloctahydro-1H-indol-6-ol] | ≥1.0 | < 50 | 
COc1ccc([C@]23CCN(C)[C@H]2[C@H]2CC[C@@H]3C[C@H]2O)cc1OC [Compound 1933] | ≥1.0 | < 50 | 
COc1ccc([C@@]23C=C[C@H](O)C[C@@H]2N(C)CC3)cc1OC [Compound 0021] | ≥10 | 100 to 500 | 
COc1ccc([C@@]23CC[C@H](O)C[C@@H]2N(C)CC3)cc1OC [6-epi-mesembranol] |  |  | potency at 5-HTT (5-HTT): decrease in potency; metabolic stability [1]: enhanced metabolic stability
COc1ccc([C@]23CCN(C)[C@H]2C[C@@H](O)[C@@H]2O[C@@H]23)cc1OC [Compound 1930] | ≥10 | 100 to 500 | 
CCCOc1cc([C@@]23CC[C@H](O)C[C@@H]2N(C)CC3)ccc1OC [Compound 0708] | ≥1.0 | < 50 | 
COc1ccc([C@@]23CC[C@@H](O)C[C@@H]2N(C)CC3)cc1OC [mesembranol, Mesembranol] |  |  | potency at 5-HTT (5-HTT): decrease in potency; metabolic stability [1]: enhanced metabolic stability
CCOc1ccc([C@@]23CC[C@@H](O)C[C@@H]2N(C)CC3)cc1OCC [Compound 1763] | ≥1.0 | < 50 | 
COc1cc([C@@]23CC[C@H](O)C[C@@H]2N(C)CC3)ccc1O [Compound 2700] | ≥1.0 | < 50 | 
COc1ccc([C@]23C=C[C@@H](O)C[C@H]2N(C)CC3)cc1OC [Compound 0024] | ≥100 | 100 to 500 | 
CCCOc1cc([C@@]23CC[C@@H](O)C[C@@H]2N(C)CC3)ccc1OC [Compound 0707] | ≥10 | 50 to 100 | 
CCN1CC[C@]2(c3ccc(OC)c(OC)c3)CC[C@@H](O)C[C@H]12 [Compound 1001] | ≥100 | > 1000 | 
COc1ccc([C@@]23CCN(C)[C@@H]2C[C@H](O)[C@@H]2O[C@@H]23)cc1OC (single isomer, unassigned) [Compound 1932] | ≥10 | 100 to 500 | 
COc1ccc([C@]23C=C[C@H](O)C[C@H]2N(C)CC3)cc1OC [Compound 0023] | ≥10 | 100 to 500 | 
COc1ccc([C@@]23CC[C@@H](O)C[C@@H]2N(C)CC3)cc1OC [Compound 0018, (3aS,6R,7aS)-3a-(3,4-dimethoxyphenyl)-1-methyloctahydro-1H-indol-6-ol] | ≥1.0 | < 50 | 
